Experimental data taken from US8796267B2, “Oxazolidinone derivatives and methods of use” (Concert Pharmaceuticals, Inc., priority 2006, dated 2014).
≈ marks a conversion by molar mass, not a printed value. Read-outs that look alike come from different tables or passages of the source.

Assays:
S. pyogenes = test: MIC assay (broth microdilution); assay type: cell-based; conditions: Streptococcus pyogenes; read-out: potency (MIC90)
Protocol: (§1) The three test compounds were stored at 4° C. until tested.
(§2) All test articles and drugs were dissolved in 50% dimethyl sulfoxide (DMSO) at one-half the volume needed to prepare the stock solution. Once the compound was in solution, the rest of the volume was added as sterile deionized water. The drug solutions were allowed to stand at room temperature for 1 hr to allow for auto-sterilization. Stock solutions were prepared at 40-fold the highest final test concentration in the test plate. The final concentration of DMSO in the assay was 2.5%.
(§3) The test organisms were obtained from clinical laboratories; quality control cultures were from the American Type Culture Collection. The test groups included Staphylococcus aureus, Staphylococcus epidermidis, Enterococcus faecalis, Enterococcus faecium, Streptococcus pneumoniae, Streptococcus pyogenes, Streptococcus agalactiae, Haemophilus influenzae, and Moraxella catarrhalis. Various phenotypic susceptibility/resistance groups were represented. Organisms received were streaked for isolation on agar medium appropriate to each organism. Colonies were picked by swab from the isolation plates and put into suspension in the appropriate media containing a cryoprotectant. The suspensions were aliquoted into cryogenic vials and maintained at −80° C. The isolates were thawed and passaged on the appropriate agar medium: Trypticase Soy agar (TSA) for most organisms, TSA plus 5% sheep blood for streptococci, and chocolate agar for Haemophilus. The plates were incubated overnight at 35° C. Haemophilus plates were incubated in the presence of CO2.
(§4) The medium employed for the MIC assay was Mueller Hinton II Broth (MHB II-Becton Dickinson, Sparks, Md. #212322, Lot #7143673) for most of the organisms. MHB II was supplemented with 2% lysed horse blood (Cleveland Scientific Lot #H93152) to accommodate the growth of Streptococcus pneumoniae. Haemophilus influenzae was tested in Haemophilus Test Medium. On the day of the test, the medium to be used in the daptomycin row of the daughters was supplemented with calcium ions to the final concentration of 50 μg/mL, taking into account the calcium that was already present in the medium.
(§5) The MIC assay method followed the procedure described by the Clinical and Laboratory Standards Institute and employed automated liquid handlers to conduct serial dilutions and liquid transfers. Automated liquid handlers included the Multidrop 384, Labsystems, Helsinki, Finland; Biomek 2000 and Multimek 96, Beckman Coulter, Fullerton Calif. The wells of standard 96-well microdilution plates (Falcon 3918) were filled with 150 μL of DMSO:deionized H2O (1:1) on the Multidrop 384. The drugs were dispensed into Column 1 of a deep well plate. The Biomek 2000 transferred 150 μL of each drug into one well in Column 1 of a “mother plate” and completed serial transfers through Column 11 in the mother plates. The wells of Column 12 contained no drug and were the organism growth control wells.
(§6) The daughter plates were loaded with 85 μL of the appropriate test media described above using the Multidrop 384. The daughter plates were prepared on the Multimek 96 instrument which transferred 5 μL of drug solution from each well of a mother plate to each corresponding well of each daughter plate in a single step.
(§7) Standardized inoculum of each organism was prepared per CLSI methods (Clinical and Laboratory Standards Institute. Methods for Dilution Antimicrobial Susceptibility Tests for Bacteria That Grow Aerobically; Approved Standard—Seventh Edition. Clinical and Laboratory Standards Institute document M7-A7 [ISBN 1-56238-587-9]. Clinical and Laboratory Standards Institute, 940 West Valley Road, Suite 1400, Wayne, Pa. 19087-1898 USA, 2006). Suspensions were prepared in MHB to equal a 0.5 McFarland standard. The suspensions were diluted 1:19 in broth appropriate to the organism. […]

community-acquired MRSA = test: MIC assay (broth microdilution); assay type: cell-based; conditions: Staphylococcus aureus, clinical isolates
Protocol: as §1, §2, §3, §4, §5, §6, §7

[1] = test system: methicillinsensitive S. aureus (MSSA); test: MIC assay (broth microdilution); assay type: cell-based; conditions: Staphylococcus aureus, clinical isolates
Protocol: as §1, §2, §3, §4, §5, §6, §7

H. influenzae = test: MIC assay (broth microdilution); assay type: cell-based, Haemophilus influenzae; conditions: in words
Protocol: as §1, §2, §3
The medium employed for the MIC assay was Mueller Hinton II Broth (MHB II-Becton Dickinson, Sparks, Md. #212322, Lot #7143673) for most of the organisms. MHB II was supplemented with 2% lysed horse blood (Cleveland Scientific Lot #H93152) to accommodate the growth of Streptococcus pneumoniae. Haemophilus influenzae was tested in Haemophilus Test Medium. […]

[2] = test system: antibiotic resistant Grampositive pathogens including MRSA, VRE, and PRSP; test: In vitro antibacterial activity, overall conclusion; assay type: cell-based; conditions: in words
Protocol: as §1, §2
as §3, with “The isolates were thawed and passaged on the appropriate agar medium: Trypticase Soy agar (TSA) for most organisms, TSA plus 5% sheep blood for streptococci, and chocolate agar for Haemophilus. The plates were incubated overnight at 35° C. Haemophilus plates were incubated in the presence of CO2.” left out

[3] = in words
Protocol: (§8) Four chimpanzees (two male and two female) were used in the study. One male and one female were used for the intravenous study and one male and one female were used for the oral dosing study. All animals were fasted overnight prior to dosing. For all studies animals were sedated with ketamine (approx. 10 mg/ml) or telazol (approx. 5 mg/ml) prior to dosing. […] Intravenous doses were administered (150 ml at 2 mg/ml combined drugs) by infusion over a 30 minute period. Oral doses were administered in a volume of 150 ml at 2 mg/ml combined drugs.
(§9) For the intravenous study, a 4.5 ml aliquot of blood was taken from each animal prior to the start of infusion, 15 minutes after the start of infusion, and immediately before the end of infusion. Additional samples were taken at 6, 15, 30, and 60 minutes and 1.5, 2, 4, 6, 8 and 24 hours following infusion. For the oral study, 4.5 ml aliquots of blood were taken from each animal prior to doing and then at 15, 20 and 60 minutes and 1.5, 2, 4, 6, 8 and 24 hours post dosing. All blood samples were collected into vacutainer tubes containing sodium heparin as an anticoagulant, sufficiently mixed and stored on wet ice. The samples were centrifuged within 1 hour of collection and the plasma collected and frozen at −70° C. until analysis. Urine was also collected from each animal over a 24 hour period following dosing.
Urine samples were similarly analyzed. […]

in vivo [4] = conditions: 150 mg; for AUC(0-t): both, chimpanzee, po; for half-life: iv
Protocol: The dosing solution is then filtered through a 0.22 μm filter prior to dosing.
as §8, §9
Chimp plasma sample (100 μL) was mixed with 300 μL internal standard solution prior to LC-MS/MS analysis. The internal standard was 250 ng/mL haloperidol in acetonitrile/water (90/10, v/v). After protein precipitation, 10 L supernatant was injected to a Zorbax SB-C8 (Rapid Resolution) column (2.1×30 mm, 3.5 μm). The initial mobile phase condition was 100% A (water with 0.1% formic acid) and 0% B (acetonitrile with 0.1% formic acid) with a flow rate at 0.5 mL/min. Mobile phase B was allowed to reach 90% within 2 minutes and held for 1 minute before ramping back 0% at 3.2 minutes. The overall run time was six minutes.

[5] = test system: mtDNA-encoded protein synthesis in HepG2 cells; test: Mitochondria Toxicity Study (Complex IV/Frataxin ratio, dipstick); conditions: for IC50: Homo sapiens, HepG2; for mitochondria toxicity: in words, versus linezolid
M. catarrhalis = test: MIC assay (broth microdilution); assay type: cell-based; conditions: Moraxella catarrhalis; 30 isolates
Protocol: as §1, §2, §3, §4, §5, §6, §7

S. agalactiae = test: MIC assay (broth microdilution); assay type: cell-based; conditions: Streptococcus agalactiae
Protocol: as §1, §2, §3, §4, §5, §6, §7

[6] = test system: methicillin-resistant S. aureus (MRSA); test: MIC assay (broth microdilution); assay type: cell-based; conditions: Staphylococcus aureus, clinical isolates
Protocol: as §1, §2, §3, §4, §5, §6, §7

[7] = test system: methicillin-resistant S. epidermidis (MRSE); test: MIC assay (broth microdilution); assay type: cell-based; conditions: Staphylococcus epidermidis, clinical isolates
Protocol: as §1, §2, §3, §4, §5, §6, §7

[8] = test system: methicillin-sensitive S. epidermidis (MSSE); test: MIC assay (broth microdilution); assay type: cell-based; conditions: Staphylococcus epidermidis; clinical isolates
Protocol: as §1, §2, §3, §4, §5, §6, §7

[9] = test system: penicillin-intermediate S. pneumoniae; test: MIC assay (broth microdilution); assay type: cell-based; conditions: Streptococcus pneumoniae; 27 isolates
Protocol: as §1, §2, §3, §4, §5, §6, §7

[10] = test system: penicillin-resistant S. pneumoniae; test: MIC assay (broth microdilution); assay type: cell-based; conditions: Streptococcus pneumoniae; 28 isolates
Protocol: as §1, §2, §3, §4, §5, §6, §7

[11] = test system: penicillin-sensitive S. pneumoniae; test: MIC assay (broth microdilution); assay type: cell-based; conditions: Streptococcus pneumoniae; 27 isolates
Protocol: as §1, §2, §3, §4, §5, §6, §7

[12] = test system: vancomycin-resistant E. faecalis; test: MIC assay (broth microdilution); assay type: cell-based; conditions: Enterococcus faecalis; clinical isolates
Protocol: as §1, §2, §3, §4, §5, §6, §7

[13] = test system: vancomycin-resistant E. faecium; test: MIC assay (broth microdilution); assay type: cell-based; conditions: Enterococcus faecium; clinical isolates
Protocol: as §1, §2, §3, §4, §5, §6, §7

[14] = test system: vancomycin-sensitive E. faecalis; test: MIC assay (broth microdilution); assay type: cell-based; conditions: Enterococcus faecalis; clinical isolates
Protocol: as §1, §2, §3, §4, §5, §6, §7

[15] = test system: vancomycin-sensitive E. faecium; test: MIC assay (broth microdilution); assay type: cell-based; conditions: Enterococcus faecium; printed only as 'a value'
Protocol: as §1, §2, §3, §4, §5, §6, §7

[16] = in words; cited from earlier work
[17] = humans; cited from earlier work
[18] = cited from earlier work
[19] = test system: Vancomycin-Resistant Enterococcus faecium; Staphylococcus aureus; Streptococcus pneumoniae; Streptococcus pyogenes; Streptococcus agalactiae infections; conditions: clinical trials, in words; cited from earlier work
in vivo [20] = conditions: male, Sprague Dawley, rat, po, 5 mg/kg
Protocol: The combo dose was prepared by mixing both by 1:1 to yield a concentration of 5 mg/mL for each compound (pH ˜6) for intravenous and oral administration. The obtained solution was clear and colourless.
Male Sprague Dawley rats (body weight: 170 g to 220 g) were used in this study. Before the pharmacokinetic studies, animals were randomly assigned to the treatment groups.
The plasma samples and the dose formulation were stored at −20° C. until bioanalysis. Sample Analysis
Plasma samples (0.1 mL) were transferred to Eppendorff tube, then 20 μL methanol, and 300 μL IS solution (50 ng/mL) were added to it. After Vortexing for 1 min and centrifuging for 5 min at 15,000 rpm, 5 μL of supernatant was injected into LC/MS/MS.
The concentrations in plasma below the limit of quantitation (LOQ=5 ng/mL) were designated as zero. The pharmacokinetic data analysis was performed using noncompartmental analysis modules in WinNonlin2.0.

[21] = test system: Cyp isoforms (1A2; 2C9; 2C19; 2D6; 2E1; 3A4); conditions: cited from earlier work

| Compound | MIC90 (S. pyogenes) [µg/mL] | MIC90 (community-acquired MRSA) [µg/mL] | MIC90 [1] [µg/mL] | activity (H. influenzae) | activity against antibiotic resistant Grampositive pathogens [2] | AUC(0-t) (in vivo [4]) [ng·h/mL] | half-life (in vivo [4]; female) [h] | half-life (in vivo [4]; male) [h] | IC50 [5] [µM] | mitochondria toxicity [5] | MIC90 (M. catarrhalis) [µg/mL] | MIC90 (S. agalactiae) [µg/mL] | MIC90 [6] [µg/mL] | MIC90 [7] [µg/mL] | MIC90 [8] [µg/mL] | MIC90 [9] [µg/mL] | MIC90 [10] [µg/mL] | MIC90 [11] [µg/mL] | MIC90 [12] [µg/mL] | MIC90 [13] [µg/mL] | further results |
| --- | --- | --- | --- | --- | --- | --- | --- | --- | --- | --- | --- | --- | --- | --- | --- | --- | --- | --- | --- | --- | --- |
| [2H]C([2H])(NC(C)=O)[C@H]1CN(c2ccc(N3C([2H])([2H])C([2H])([2H])OC([2H])([2H])C3([2H])[2H])c(F)c2)C(=O)O1 [Compound 100] | 1 (≈ 2.88 µM) | 2 (≈ 5.76 µM) | 4 (≈ 11.5 µM) | poor activity | good activity | 16400 | 6.4 | 6.2 | 9.3 | comparable to that of linezolid |  |  |  |  |  |  |  |  |  |  | rate of metabolism versus linezolid (chimpanzee studies, in words): more slowly metabolized than linezolid; amount of deuterated M6 metabolite versus linezolid M6 metabolite ([3]; chimpanzee urine): essentially the same; amount excreted intact in the urine versus linezolid ([3]; chimpanzee, regardless of route or sex): approximately twice as much |
| [2H]C1([2H])OC([2H])([2H])C([2H])([2H])N(c2ccc(N3C[C@H](CNC(C)=O)OC3=O)cc2F)C1([2H])[2H] [Compound 101] | 1 (≈ 2.9 µM) | 2 (≈ 5.79 µM) | 4 (≈ 11.6 µM) | poor activity | good activity |  |  |  | 10.5 | comparable to that of linezolid | 4 (≈ 11.6 µM) | 2 (≈ 5.79 µM) | 4 (≈ 11.6 µM) | 2 (≈ 5.79 µM) | 2 (≈ 5.79 µM) | 2 (≈ 5.79 µM) | 2 (≈ 5.79 µM) | 2 (≈ 5.79 µM) | 2 (≈ 5.79 µM) | 2 (≈ 5.79 µM) | MIC90 [14]: 2 µg/mL (≈ 5.79 µM); MIC90 [15]: 2 µg/mL (≈ 5.79 µM); % increase in AUC (both, chimpanzee, in vivo, iv): 31%; % increase in Half-life (both, chimpanzee, in vivo, iv): 30%; % increase in AUC (both, chimpanzee, in vivo, po): 41%; % increase in Cmax (both, chimpanzee, in vivo, po): 22% |
| [2H]C1([2H])CN(c2ccc(N3C[C@H](CNC(C)=O)OC3=O)cc2F)CC([2H])([2H])O1 [Compound 103, (S)—N-((3-(3-fluoro-4-(4-morpholino-2,2,6,6-d4)-phenyl)-2-oxooxazolidin-5-yl)methyl)acetamide] |  |  |  |  |  |  |  |  | 9.7 | comparable to that of linezolid |  |  |  |  |  |  |  |  |  |  |  |
| CC(=O)NCC1CN(c2ccc(N(CCO)CC(=O)O)c(F)c2)C(=O)O1 (stereo not shown) [Compound M4] |  |  |  |  |  |  |  |  |  |  |  |  |  |  |  |  |  |  |  |  | activity of metabolite [16]: inactive |
| CC(=O)NCC1CN(c2ccc(NCCOCC(=O)O)c(F)c2)C(=O)O1 (stereo not shown) [Compound M6] |  |  |  |  |  |  |  |  |  |  |  |  |  |  |  |  |  |  |  |  | activity of metabolite [16]: inactive |
| CC(=O)NC[C@H]1CN(c2ccc(N3CCOCC3)c(F)c2)C(=O)O1 [Linezolid, (S)—N-[[3-[3-Fluoro-4-(4-morpholinyl)phenyl]-2-oxo-5-oxazolidinyl]methyl]-acetamide, reference compound] | 1 (≈ 2.96 µM) | 2 (≈ 5.93 µM) | 4 (≈ 11.9 µM) | poor activity |  | 11300 | 4.5 | 4.5 | 7.8 |  | 8 (≈ 23.7 µM) | 2 (≈ 5.93 µM) | 4 (≈ 11.9 µM) | 2 (≈ 5.93 µM) | 2 (≈ 5.93 µM) | 2 (≈ 5.93 µM) | 2 (≈ 5.93 µM) | 2 (≈ 5.93 µM) | 2 (≈ 5.93 µM) | 2 (≈ 5.93 µM) | MIC90 [14]: 2 µg/mL (≈ 5.93 µM); MIC90 [15]: 2 µg/mL (≈ 5.93 µM); administered dose found in the urine as the parent compound [17]: Approximately 35%; dose accounted for as the two metabolites (M4, M6) [17]: 50%; tolerability ([18]; 725 mg three times a day, increase in serum creatinine): could not be tolerated; myelosuppression ([18]; patients receiving linezolid, reversible): Myelosuppression has been reported; efficacy in treatment of infections [19]: effective; Tmax (in vivo [20]): 0.83 ± 1.01 h; Cyp substrate, inhibitor or inducer [21]: not a substrate, inhibitor, or inducer |
